From ChEMBL document CHEMBL5390253, “Discovery of Selective and Potent Macrocyclic CDK9 Inhibitors for the Treatment of Osimertinib-Resistant Non-Small-Cell Lung Cancer” (J Med Chem, 2023)
Active and inactive are the calls of the source. The rule behind the calls is not given here.

Key:
CDK9/cyclin T1 = CDK9/cyclin T1 (Homo sapiens, UniProt P50750); test: Inhibition of CDK9/Cyclin-T1 (unknown origin) preincubated for 10 mins followed by substrate addition and measured after 60 mins in presence of ATP by ADP-Glo reagent based assay; assay type: protein-complex assay
CDK9/cyclin T1, sequence (O60563 whole entry): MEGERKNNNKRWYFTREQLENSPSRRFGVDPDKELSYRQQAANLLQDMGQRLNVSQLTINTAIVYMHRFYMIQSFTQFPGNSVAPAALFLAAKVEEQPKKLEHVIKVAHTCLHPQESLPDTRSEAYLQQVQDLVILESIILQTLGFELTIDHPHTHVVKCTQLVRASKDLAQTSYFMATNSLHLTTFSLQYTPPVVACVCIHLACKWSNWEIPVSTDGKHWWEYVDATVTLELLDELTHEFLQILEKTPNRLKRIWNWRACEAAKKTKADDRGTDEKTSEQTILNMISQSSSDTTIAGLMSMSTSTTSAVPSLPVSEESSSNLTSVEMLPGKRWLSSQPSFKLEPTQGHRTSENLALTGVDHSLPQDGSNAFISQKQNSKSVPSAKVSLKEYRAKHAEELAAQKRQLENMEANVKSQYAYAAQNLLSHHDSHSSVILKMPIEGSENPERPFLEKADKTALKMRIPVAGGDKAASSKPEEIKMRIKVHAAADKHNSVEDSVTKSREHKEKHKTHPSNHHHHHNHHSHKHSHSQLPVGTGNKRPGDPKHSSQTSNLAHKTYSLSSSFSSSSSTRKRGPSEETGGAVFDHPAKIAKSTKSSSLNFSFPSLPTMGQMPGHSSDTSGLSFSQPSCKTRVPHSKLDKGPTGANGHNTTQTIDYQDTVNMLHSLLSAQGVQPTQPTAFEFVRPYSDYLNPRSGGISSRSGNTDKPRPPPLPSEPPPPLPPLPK
CDK9/cyclin T1, sequence (P50750 whole entry): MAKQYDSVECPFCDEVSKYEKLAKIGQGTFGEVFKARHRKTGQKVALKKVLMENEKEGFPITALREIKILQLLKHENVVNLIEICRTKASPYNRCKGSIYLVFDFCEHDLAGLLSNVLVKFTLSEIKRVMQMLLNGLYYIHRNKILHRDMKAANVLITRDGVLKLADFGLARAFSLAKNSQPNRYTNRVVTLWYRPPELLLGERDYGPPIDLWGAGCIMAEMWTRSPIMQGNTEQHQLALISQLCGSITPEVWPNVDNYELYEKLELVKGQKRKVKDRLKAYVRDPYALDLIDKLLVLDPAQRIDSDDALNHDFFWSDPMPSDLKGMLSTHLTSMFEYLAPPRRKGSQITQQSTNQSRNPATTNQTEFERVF

NCI-H1975 [1] = test: Downregulation of Mcl-1 level in human Osimertinib-resistant NCI-H1975 cell at 500 nM by Western blotting analysis; assay type: functional, cell-based; conditions: time 2-12 hrs, TDE = time-dependent effect
NCI-H1975 [2] = test: Inhibition of cell growth in 3D-cultured human Osimertinib-resistant NCI-H1975 cell by DAPI and PI staining based analysis; assay type: functional; conditions: dose 0.049-3.125 µM
[3] = Toxicity in ICR mouse assessed as morphological changes in heart at 1000 mg/kg, po measured after 9 days by H and E staining based analysis; assay type: organism-based; conditions: in vivo, 216 h, time 9 day
[4] = Induction of apoptosis in human Osimertinib-resistant NCI-H1975 cell assessed as early apoptotic cells at 125 nM measured after 16 hrs in presence of osimertinib by Annexin V-FITC and PI staining based analysis (Rvb =1.78%); assay type: functional
[5] = test system: Osimertinib-resistant HCC827AR cell; test: Inhibition of cell growth in 3D-cultured human Osimertinib-resistant HCC827 cell by DAPI and PI staining based analysis; assay type: functional; conditions: dose 0.049-3.125 µM
[6] = target: CDK6/cyclin D1 (Homo sapiens) (UniProt P24385+Q00534); test: Inhibition of CDK6/cyclin D1 (unknown origin) at 200 nM preincubated for 10 mins followed by substrate addition and measured after 60 mins in presence of ATP by ADP-Glo reagent based assay relative to control; assay type: protein-complex assay; conditions: time 70.0 min
NCI-H1975 [7] = test: Downregulation of cleaved PARP level in human Osimertinib-resistant NCI-H1975 cell measured after 16 hrs by Western blot analysis; assay type: functional, cell-based; conditions: dose 125-2000 nM
[8] = target: CDK2/Cyclin A2 (Homo sapiens) (UniProt P24941+P20248); test: Inhibition of CDK2/Cyclin A2 (unknown origin) at 200 nM preincubated for 10 mins followed by substrate addition and measured after 60 mins in presence of ATP by ADP-Glo reagent based assay relative to control; assay type: protein-complex assay; conditions: time 70.0 min
[9] = Induction of apoptosis in human Osimertinib-resistant NCI-H1975 cell assessed as late apoptotic cells at 125 nM measured after 16 hrs in presence of osimertinib by Annexin V-FITC and PI staining based analysis (Rvb =2.84%); assay type: functional
[10] = Toxicity in ICR mouse assessed as effect on body weight loss at 100 mg/kg, iv measured for 8 to 9 days; assay type: organism-based; conditions: in vivo, time 8-9 day
[11] = Induction of apoptosis in human Osimertinib-resistant NCI-H1975 cell assessed as early apoptotic cells at 500 nM measured after 16 hrs by Annexin V-FITC and PI staining based analysis (reference value: 1.78%); assay type: functional
NCI-H1975 [12] = test: Inhibition of colony formation in human Osimertinib-resistant NCI-H1975 cell assessed as inhibition of cell growth at 125 to 2000 nM measured after 2 weeks by crystal violet staining based analysis; assay type: functional; conditions: dose 125-2000 nM
[13] = Toxicity in ICR mouse assessed as effect on physical appearance at 1000 mg/kg, po measured for 8 to 9 days; assay type: organism-based; conditions: in vivo, time 8-9 day
[14] = Toxicity in ICR mouse assessed as morphological changes in lung at 1000 mg/kg, po measured after 9 days by H and E staining based analysis; assay type: organism-based; conditions: in vivo, 216 h, time 9 day

- IC50 (CDK9/cyclin T1): 3.2 nM
- inhibition [6]: 29.3%
- inhibition [8]: 39.1%
SMILES: O=C(NCCN1CCOCC1)c1ccc2cc1OCCCCCCOc1cc(ccc1F)-c1nc(ncc1F)N2
- Activity (NCI-H1975 [1]): Tde
- inhibition (NCI-H1975 [2]): Dose-Dependent Effect
- Activity [3]: Non-Toxic
- Activity [4]: 3.15%
- inhibition [5]: Dose-Dependent Effect
- Activity (NCI-H1975 [7]): Dose-Dependent Effect
- Activity [9]: 18.2%
- Activity [10]: Non-Toxic
- Activity [11]: 14.4%
- inhibition (NCI-H1975 [12]): Active
- Activity [13]: Non-Toxic
- Activity [14]: Non-Toxic
